From patent US11007250B2, “Methods and kits for treating pain” (Duke University, priority 2017, dated 2021)

Assays:
[1] = system: DRG neurons and sciatic nerve fibers; assay: Nivolumab binding in mouse DRG and sciatic nerve sections
Procedure: FIG. 10 (Supp. FIG. 2). […] Human IgG included as a control. *P<0.05, vs. human IgG/PD-L1, repeated measures Two-Way ANOVA, n=4 mice/group. Arrows indicate drug injections. Human IgG or monoclonal antibody injected 30 min prior to injection of PD-L1. BL, baseline. […] Arrows indicate nerve fibers. Data are mean s.e.m.
Immunohistochemistry in mouse and human tissues and quantification. After appropriate survival times, mice were deeply anesthetized with isoflurane and perfused through the ascending aorta with PBS, followed by 4% paraformaldehyde. After the perfusion, the L4-L5 spinal cord segments, L4-L5 DRGs, sciatic nerves, and melanoma tissues were removed and postfixed in the same fixative overnight. Fresh human DRGs (L4-L5) of 4 non-diseased donors from NDRI (National Disease Research Interchange) (Xu, Z Z, et al. 2015) and the attached spinal nerves were immediately fixed upon delivery in fresh 4% paraformaldehyde overnight. Spinal cord, DRG, and nerve tissue sections (10 or 14 μm) and free-floating spinal cord and skin sections (30 μm) were cut in a cryostat. […] The stained sections were examined with a Nikon fluorescence microscope, and images were captured with a CCD Spot camera. […]

melanoma-bearing mice = assay: Mouse melanoma model: spontaneous pain, von Frey test, CPP; type: in vivo; conditions: MCI-4w
[2] = system: afferent fibers in sciatic nerve of melanoma-bearing mice; assay: Spontaneous discharge recordings in mouse sciatic nerve in vivo; conditions: i.v. Nivolumab 10 mg/kg, MCI-4w, 3 h after injection
Source text: Spontaneous discharge recordings in mouse sciatic nerve in vivo. Adult male mice (25-32 g) were anaesthetized with urethane (1.5 g/kg, i.p.) and monitored for loss of hind paw pinch reflex with additional injections of urethane (0.2 g/kg). The animals were artificially ventilated with oxygen on a respirator. The left thigh was shaved and an incision made parallel to the femur. The muscle was parted by blunt forceps dissection to expose the sciatic nerve proximal to the trifurcation. A cuff electrode (Microprobes) was placed loosely around the full circumference of the sciatic nerve. Skin flaps were raised to enclose a pool of mineral oil that covered the exposed regions of nerve. The spontaneous discharges in the sciatic nerve were recorded with a microelectrode AC amplifier (1800, A-M systems), filtered (low cut-off 100 Hz and hi cut-off 20 kHz) and digitized at 20 kHz (Digidata 1440A, Molecular Devices). Data were stored with a personal computer using pCLAMP 10 software and analyzed with Offline Sorter software (Plexon, Dallas, Tex.) and Origin pro 8.0 (Origin Lab). The spikes of sciatic nerve were characterized as previously reported (Xu, Z Z, et al. 2015).

mice = assay: Tail-flick and hot-plate tests of morphine antinociception; type: in vivo, mouse
Procedure: Tail-flick test. All animals were habituated to testing environment for at least 2 days before baseline testing. Mice were gently held by a hand with a terry glove and with tails exposed. The distal 3 cm of the tail was immersed into the 50° C. hot water. The tail-flick latency was the time required for a mouse to flick or remove its tail out of the water. A maximum cut-off value of 15 seconds was set to avoid thermal injury. Tail-flick latency was determined both before and after drug injection. Data are expressed as the maximum possible effect (MPE) calculated as MPE (%)=100×[(postdrug response baseline response)/(cutoff response−baseline response)]. The MPE (%) data from each animal were converted to area under the curve (AUC).
Hot-plate test. All animals were habituated to testing environment for at least 2 days before baseline testing. […] A maximum cut-off value of 40 seconds was set to avoid tissue injury. Data are expressed as the maximum possible effect (MPE) calculated as MPE (%)=100×[(postdrug response−baseline response)/(cutoff response−baseline response)]. The MPE (%) data from each animal were converted to area under the curve (AUC).

Nivolumab: FDA-approved fully humanized IgG4 monoclonal anti-PD-1 antibody, Bristol-Myers Squibb
binding in Pd1 knockout mice ([1]; Pd1−/− mice): absent
binding in wild-type (WT) mouse tissue ([1]; WT mice): binding on DRG neurons and sciatic nerve fibers
mechanical allodynia in melanoma-bearing mice (melanoma-bearing mice; sPD-1 5 μg i.pl., siRNA 2 μg peri-sciatic, Nivolumab 3-10 mg/kg i.v., RMP1-14 10 mg/kg i.v.): rapid, persistent, and dose-dependent mechanical allodynia
spontaneous pain (licking/flinching) in melanoma-bearing mice (melanoma-bearing mice; sPD-1 5 μg i.pl., siRNA 2 μg peri-sciatic, Nivolumab 3-10 mg/kg i.v., RMP1-14 10 mg/kg i.v., SSG 5 μg i.pl.): marked spontaneous pain
mechanical allodynia in melanoma-bearing mice after local injection (melanoma-bearing mice; intrathecal or intraplantar route): evoked mechanical allodynia
spontaneous discharges in nerve fibers [2]: significantly increased spontaneous discharges
analgesic effect of morphine after Nivolumab (mice; Nivolumab 10 mg/kg i.v. 30 min before morphine 10 mg/kg s.c.): reduced analgesic effect
pain sensitivity, given with saline (mice; Nivolumab 10 mg/kg i.v. 30 min before s.c. saline): greater sensitivity to pain
